# PMC10657444, “Design and evaluation of tadpole-like conformational antimicrobial peptides” (Communications Biology, 2023)
# Values joined by “and” are separate entries in the source; they are usually repeats but may differ in a detail not shown here. Identical values can stand only once. Residues, ends and D or L forms follow the SMILES beside them.
# Key:
# MRSA 3393 = format: cell-based, Staphylococcus aureus; details: 3393
# Source text: (§1) Bacteria were cultivated in Luria-Bertani (LB) broth.
# MRSA ATCC 43300 = format: cell-based, Staphylococcus aureus; details: ATCC 43300
# Source text: as §1
# MRSA USA 300 [1] = format: cell-based, Staphylococcus aureus
# Source text: as §1
# E. coli ATCC 25922 = format: cell-based, Escherichia coli
# Source text: as §1
# MRSA USA 300 [2] = assay: Membrane permeability, SYTOX Green; format: cell-based, Staphylococcus aureus
# Description: Fluorescent probe SYTOX^TM Green (Invitrogen/ Life Technologies, S7020) was used to analyze the effect of HT2 and RI-HT2 on membrane permeability of MRSA USA 300 and K. pneumoniae ATCC 700603 as described elsewhere. SYTOX^TM Green is a DNA binding dye that is fluorescent when bound to nucleic acids and only enters cells with compromised plasma membranes. MRSA USA 300 and K. pneumoniae ATCC 700603 were cultured in LB broth to mid log phase at 37 °C and washed with PBS and resuspended (OD595 ≈ 0.1) in the same buffer. SYTOX^TM Green was added into the cell suspension with a final concentration of 5 μM and being kept in dark for 20 min. 98 µL pre-treated cell suspension was transferred into wells of 96-well glass black plates. Then, 2 µL of compound or DMSO were added to initiate the reaction. The final concentrations of HT2 and RI-HT2 were 1 ×, 2 ×, 4 × and 8 × MIC. Fluorescence strength was measured with excitation/emission wavelength of 485/528 nm every 5 min for 60 min.
# MRSA USA 300 [3] = assay: microbe, parasite or virus in culture; format: cell-based, Staphylococcus aureus
# Description: MRSA USA 300 and K. pneumoniae ATCC 700603 were employed to assess the development of resistance. From inoculated microtiter panels, an aliquot of the well with the highest concentration permitting growth was taken and back diluted in fresh media to a turbidity of a 0.5 McFarland standard. This suspension was then further diluted and used to inoculate a fresh MIC panel resulting in a final concentration of 5 × 10^6 CFU/mL. Panels were incubated according to CLSI guidelines (M07, 11th edition, 2018), MICs were recorded and the next inoculum was prepared from the well containing the highest concentration of drug that allowed growth in identical fashion as described above.
compound,measurement,setting,value
CC[C@H](C)[C@H](NC(=O)[C@H](CCCNC(=N)N)NC(=O)[C@H](CCCNC(=N)N)NC(=O)[C@H](CC(C)C)NC(=O)[C@H](Cc1ccccc1)NC(=O)[C@@H](N)CCCNC(=N)N)C(=O)N[C@@H](Cc1ccccc1)C(=O)N[C@@H](Cc1ccccc1)C(=O)N[C@@H](Cc1ccccc1)C(=O)N[C@@H](Cc1ccccc1)C(N)=O [HT2] (H-RFLRRIFFFF-NH2),MIC Gram+ MRSA 3393,MRSA 3393,1.57 µM
same,MIC Gram+ MRSA ATCC 43300,MRSA ATCC 43300,1.57 µM
same,MIC Gram+ MRSA USA 300,MRSA USA 300 [1],1.57 µM
same,MIC Gram- E. coli ATCC 25922,E. coli ATCC 25922,3.13 µM
same,Fluorescence intensity,"MRSA USA 300 [2]; 2 × MIC, time 25 min",31855 and 32475 and 30920
same,Fluorescence intensity,"MRSA USA 300 [2]; 2 × MIC, time 30 min",32738 and 33363 and 31902
same,Fluorescence intensity,"MRSA USA 300 [2]; 2 × MIC, time 35 min",33433 and 34141 and 32365
same,Fluorescence intensity,"MRSA USA 300 [2]; 2 × MIC, time 40 min",33952 and 34791 and 32993
same,Fluorescence intensity,"MRSA USA 300 [2]; 2 × MIC, time 45 min",34234 and 35153 and 33304
same,Fluorescence intensity,"MRSA USA 300 [2]; 2 × MIC, time 50 min",34616 and 35530 and 33726
same,Fluorescence intensity,"MRSA USA 300 [2]; 2 × MIC, time 55 min",35021 and 36015 and 33983
same,Fluorescence intensity,"MRSA USA 300 [2]; 2 × MIC, time 60 min",35210 and 36080 and 33852
same,Fluorescence intensity,"MRSA USA 300 [2]; 4 × MIC, time 25 min",58334 and 57993 and 60104
same,Fluorescence intensity,"MRSA USA 300 [2]; 4 × MIC, time 30 min",59686 and 59179 and 61418
same,Fluorescence intensity,"MRSA USA 300 [2]; 4 × MIC, time 35 min",60470 and 60307 and 62172
same,Fluorescence intensity,"MRSA USA 300 [2]; 4 × MIC, time 40 min",61373 and 61097 and 62778
same,Fluorescence intensity,"MRSA USA 300 [2]; 4 × MIC, time 45 min",61952 and 61758 and 63164
same,Fluorescence intensity,"MRSA USA 300 [2]; 4 × MIC, time 50 min",62152 and 62388 and 63395
same,Fluorescence intensity,"MRSA USA 300 [2]; 4 × MIC, time 55 min",62374 and 62948 and 63676
same,Fluorescence intensity,"MRSA USA 300 [2]; 4 × MIC, time 60 min",62761 and 62954 and 64070
same,Fluorescence intensity,"MRSA USA 300 [2]; 8 × MIC, time 0 min",1486
same,Fluorescence intensity,"MRSA USA 300 [2]; 8 × MIC, time 25 min",61022 and 63005 and 63531
same,Fluorescence intensity,"MRSA USA 300 [2]; 8 × MIC, time 30 min",61916 and 63588 and 64175
same,Fluorescence intensity,"MRSA USA 300 [2]; 8 × MIC, time 35 min",62425 and 64473 and 64696
same,Fluorescence intensity,"MRSA USA 300 [2]; 8 × MIC, time 40 min",62708 and 64561 and 64714
same,Fluorescence intensity,"MRSA USA 300 [2]; 8 × MIC, time 45 min",62984 and 64891 and 65072
same,Fluorescence intensity,"MRSA USA 300 [2]; 8 × MIC, time 50 min",63293 and 64293 and 63594
same,Fluorescence intensity,"MRSA USA 300 [2]; 8 × MIC, time 55 min",63589 and 64553 and 65531
same,Fluorescence intensity,"MRSA USA 300 [2]; 8 × MIC, time 60 min",63666 and 65987 and 65753
same,Fluorescence intensity,"MRSA USA 300 [2]; MIC, time 0 min",1304 and 1201 and 1387
same,Fluorescence intensity,"MRSA USA 300 [2]; MIC, time 25 min",17216 and 17215 and 16315
same,Fluorescence intensity,"MRSA USA 300 [2]; MIC, time 30 min",17367 and 17359 and 16618
same,Fluorescence intensity,"MRSA USA 300 [2]; MIC, time 35 min",17590 and 17525 and 16584
same,Fluorescence intensity,"MRSA USA 300 [2]; MIC, time 40 min",17600 and 17633 and 16680
same,Fluorescence intensity,"MRSA USA 300 [2]; MIC, time 45 min",17644 and 17567 and 16788
same,Fluorescence intensity,"MRSA USA 300 [2]; MIC, time 50 min",17792 and 17686 and 16728
same,Fluorescence intensity,"MRSA USA 300 [2]; MIC, time 55 min",17738 and 17641 and 16766
same,Fluorescence intensity,"MRSA USA 300 [2]; MIC, time 60 min",17754 and 17734 and 16661
same,time to maximum SYTOX Green fluorescence intensity,MRSA USA 300 [2]; different concentrations,≤ 10 min
same,Concentration (MIC in drug resistance assay),"MRSA USA 300 [3]; MRSA USA 300, day 0",3.125 µg/mL
same,Concentration (MIC in drug resistance assay),"MRSA USA 300 [3]; MRSA USA 300, day 1",3.125 µg/mL
same,Concentration (MIC in drug resistance assay),"MRSA USA 300 [3]; MRSA USA 300, day 2",3.125 µg/mL
same,Concentration (MIC in drug resistance assay),"MRSA USA 300 [3]; MRSA USA 300, day 3",3.125 µg/mL
same,Concentration (MIC in drug resistance assay),"MRSA USA 300 [3]; MRSA USA 300, day 11",3.125 µg/mL
same,Concentration (MIC in drug resistance assay),"MRSA USA 300 [3]; MRSA USA 300, day 13",3.125 µg/mL
same,Concentration (MIC in drug resistance assay),"MRSA USA 300 [3]; MRSA USA 300, day 22",12.5 µg/mL
same,Concentration (MIC in drug resistance assay),"MRSA USA 300 [3]; MRSA USA 300, day 26",12.5 µg/mL
same,Concentration (MIC in drug resistance assay),"MRSA USA 300 [3]; MRSA USA 300, day 27",12.5 µg/mL
same,Concentration (MIC in drug resistance assay),"MRSA USA 300 [3]; MRSA USA 300, day 28",12.5 µg/mL
same,Concentration (MIC in drug resistance assay),"MRSA USA 300 [3]; MRSA USA 300, day 29",12.5 µg/mL
